Experimental findings from patent US10952992B2, “Methods of treating intraocular pressure with activators of Tie-2” (Aerpio Pharmaceuticals, Inc., priority 2015, dated 2021) are described below.

Structures are written as SMILES.

A short description of series [1]: Example 2 iris, retina, choroid and cornea tissue concentrations. The format is in vivo, male New Zealand White rabbits. The procedure: (§1) To measure the concentration of Compound 1 in plasma and ocular tissues following topical ocular, subcutaneous, and intravitreal administration, New Zealand White rabbits were administered Compound 1, and plasma and ocular samples were collected at pre-determined time points. Compound 1 formulations were prepared fresh on each day of dosing.
(§2) Ocular tissue samples from both eyes of each animal were collected and weights were recorded. Plasma and ocular tissue sample concentrations of Compound 1 were determined by LC-MS/MS.
(§3) Animals were anesthetized for ocular (topical) and intravitreal dosing following the 12IA7 IACUC protocol. Each rabbit received a bolus dose of test formulation either via topical ocular administration 3 times daily on Days 1 and 2 (at 0, 6, and 12 hours), and once on Day 3 (at 0 hours) into both eyes; via intravitreal administration into both eyes once on Day 1 (at 0 hours); or via subcutaneous administration 2 times daily on Days 1 and 2 (at 0 and 8 hours) and once daily on Day 3 (at 0 hours). Doses were given within an approximately 1 hour window each day where applicable.
(§4) On Day 1, for intravitreal administration, or on Day 3, for topical ocular and subcutaneous administration, at the appropriate ocular tissue collection time points, animals were euthanized and both eyes were enucleated immediately. Following enucleation, each eye was rinsed with phosphate-buffered saline. Ocular tissue samples from both eyes of each animal were collected at predetermined time points and weights were recorded. All the samples were frozen immediately on dry ice, and stored at −60° C. to −80° C. pending bioanalysis.
(§5) An LC-MS/MS method was developed for the determination of Compound 1 in rabbit aqueous tissues (plasma, aqueous and vitreous humor) and solid ocular tissue samples. A pre-study standard curve was analyzed to determine the specificity, range, and lower limit of quantitation of the method. Plasma and tissue homogenate study samples were extracted and analyzed. All the samples were treated identically to the standards.
(§6) One eight-point standard curve was used in each analytical batch. To be accepted, each batch must have had at least five of eight standards with accuracy within ±20% of nominal, except at the lower limit of quantification (LLOQ), where ±25% was acceptable.

Series [2] can be described thus: Example 2 aqueous humor concentrations. Conditions: intravitreal, topical ocular, subcutaneous. In kind it is in vivo, male New Zealand White rabbits. On the procedure:
as §1, §2, §3, §4, §5, §6

`COC(=O)N[C@@H](Cc1ccccc1)C(=O)N[C@@H](Cc1ccc(NS(=O)(=O)O)cc1)c1csc(-c2cccs2)n1` [Compound 1]: in series [1] (both test formulations), the “iris, retina, choroid, cornea concentrations, intravitreal relative to subcutaneous or ocular topical” value is reported as “higher concentrations”. Further, in series [1] (intravitreal administration of both test formulations), the “persistence of concentrations in all ocular tissues” value was “persisted at 72 hours”. For the same compound, the “rank order of exposure in aqueous and vitreous humor by route” value in series [2] was “intravitreal>>topical ocular>subcutaneous”.
